Measurements as given in patent US7429578B2, “Tricyclic inhibitors of poly(ADP-ribose) polymerases” (Agouron Pharmaceuticals, Inc., priority 1999, dated 2008).
Several values for one entry are separate records, joined by “and”; a condition that tells them apart may be missing. Equal values may be shown once.

What was measured:
A549 cells = assay: Cytotoxicity potentiation assay (topotecan); assay type: cell-based; conditions: test compound at 0.4 μM, ratio of IC50 of topotecan alone to IC50 of topotecan with test compound
purified PARP protein = purified PARP protein (Homo sapiens, UniProt P09874); assay: PARP enzyme inhibition assay; assay type: biochemical; conditions: [32P]NAD+ incorporation, 500 μM NAD+, 25° C.; two values in a cell = tested twice; read-out: Inhibition Constant Ki
Sequence of purified PARP protein (P09874 whole entry): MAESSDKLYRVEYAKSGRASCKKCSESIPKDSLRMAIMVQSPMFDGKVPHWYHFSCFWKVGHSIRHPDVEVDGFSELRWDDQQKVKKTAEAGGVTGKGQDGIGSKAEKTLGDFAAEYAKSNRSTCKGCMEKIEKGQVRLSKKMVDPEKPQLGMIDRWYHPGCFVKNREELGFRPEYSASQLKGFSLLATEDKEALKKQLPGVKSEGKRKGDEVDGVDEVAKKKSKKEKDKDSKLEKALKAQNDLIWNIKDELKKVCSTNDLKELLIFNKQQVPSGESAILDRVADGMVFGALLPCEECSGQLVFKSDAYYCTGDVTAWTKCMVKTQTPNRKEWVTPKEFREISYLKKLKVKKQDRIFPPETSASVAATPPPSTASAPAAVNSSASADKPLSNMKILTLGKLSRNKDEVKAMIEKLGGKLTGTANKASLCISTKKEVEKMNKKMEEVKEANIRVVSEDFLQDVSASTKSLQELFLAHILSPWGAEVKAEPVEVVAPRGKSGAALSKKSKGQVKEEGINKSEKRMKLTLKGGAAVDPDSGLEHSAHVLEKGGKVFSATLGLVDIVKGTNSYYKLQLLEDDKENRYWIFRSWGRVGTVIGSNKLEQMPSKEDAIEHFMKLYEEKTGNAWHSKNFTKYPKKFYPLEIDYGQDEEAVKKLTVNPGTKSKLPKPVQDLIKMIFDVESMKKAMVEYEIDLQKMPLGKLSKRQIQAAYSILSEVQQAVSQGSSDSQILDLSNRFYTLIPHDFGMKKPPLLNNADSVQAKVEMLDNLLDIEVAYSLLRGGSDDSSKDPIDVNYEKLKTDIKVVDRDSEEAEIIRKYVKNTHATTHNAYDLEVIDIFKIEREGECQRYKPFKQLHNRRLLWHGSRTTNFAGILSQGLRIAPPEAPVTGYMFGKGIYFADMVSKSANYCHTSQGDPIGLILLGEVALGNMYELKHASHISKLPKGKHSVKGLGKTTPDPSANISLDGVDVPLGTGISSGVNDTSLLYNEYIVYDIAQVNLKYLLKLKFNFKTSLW

Row | SMILES | Cytotoxicity Potentiation PF50 (A549 cells) | Ki (purified PARP protein) | melting point
1 | CN(C)Cc1ccc(-c2[nH]c3cccc4c3c2CNC4=O)cc1 [Compound 6] | 2.2 |  | 
2 | O=C1NCCc2c(-c3ccccc3)[nH]c3cccc1c23 [Compound 12, 2-Phenyl-3,4,5,6-tetrahydro-1H-azepino[5,4,3-cd]indol-6-one] | 1.8 | 4.2 nM | 
3 | O=C1NCCc2c(-c3cccc(CO)c3)[nH]c3cccc1c23 [Compound 16, 2-(3-Hydroxymethylphenyl)-3,4,5,6-tetrahydro-1H-azepino[5,4,3-cd]indol-6-one] | 1.9 | 5 nM | 258 to 259 °C (dec.)
4 | CN(C)Cc1ccc(-c2[nH]c3cccc4c3c2CCNC4=O)cc1 [Compound 21, 2-(4-(N,N-Dimethylamino)methylphenyl)-3,4,5,6-tetrahydro-1H-azepino[5,4,3-cd]indol-6-one] | 2.4 |  | 
5 | CN(C)Cc1cccc(-c2[nH]c3cccc4c3c2CCNC4=O)c1 [Compound 22, 2-(3-(N,N-Dimethylamino)methylphenyl)-3,4,5,6-tetrahydro-1H-azepino[5,4,3-cd]indol-6-one] | 2.3 | 7.2 nM | 222 to 225 °C
6 | O=C1NCCc2c(-c3ccc(F)cc3)[nH]c3cccc1c23 [Compound 23, 2-(4-Fluorophenyl)-3,4,5,6-tetrahydro-1H-azepino[5,4,3-cd]indol-6-one] | 2.3 |  | 
7 | O=C1NN=Cc2c[nH]c3cccc1c23 [Compound 27, 1,5-Dihydro-[1,2]diazepino[4,5,6-cd]-indol-6-one] | 1.3 | 3.4 nM | 
8 | O=C1NN=C(c2ccccc2)c2c[nH]c3cccc1c23 [Compound 28, 1,5-Dihydro-3-phenyl-[1,2]diazepino[4,5,6-cd]-indol-6-one] | 1 | 4 nM and 3.8 nM | 
9 | O=C1NN=C(CCc2ccccc2)c2c[nH]c3cccc1c23 [Compound 29, 1,5-Dihydro-3-phenethyl-[1,2]diazepino[4,5,6-cd]-indol-6-one] | 1 | 8 nM | 
10 | O=C1NCCc2c(-c3cccc(C(F)(F)F)c3)[nH]c3cccc1c23 [Compound 30, 2-(3-Trifluoromethyl-phenyl)-1,3,4,5-tetrahydro-azepino[5,4,3-cd]indol-6-one] | 2.4 | 6.3 nM | 212.5 to 213.5 °C
11 | CNCc1cccc(-c2[nH]c3cccc4c3c2CCNC4=O)c1 [Compound PP, 2-(3-(N-Methylamino)methylphenyl)-3,4,5,6-tetrahydro-1H-azepino[5,4,3-cd]indol-6-one] | 2.3 | 5.3 nM | 190 to 192 °C
12 | CN(C)Cc1ccc(-c2[nH]c3cccc4c3c2CCNC4=O)cc1F [Compound PPP, 2-(4-Dimethylaminomethyl-3-fluoro-phenyl)-1,3,4,5-tetrahydro-azepino[5,4,3-cd]indol-6-one] | 2.1 | 9.4 nM | 221.5 to 222.5 °C
13 | O=C(Nc1ccc(F)cc1)c1[nH]c2cccc3c2c1CCNC3=O [Compound YYY, 6-Oxo-3,4,5,6-tetrahydro-1H-azepino[5,4,3-cd]indole-2-carboxylic acid (4-fluorophenyl)-amide] | 1.5 | 6.3 nM | 
14 | O=C1NCCc2c(-c3ccc(Cl)cc3)[nH]c3cccc1c23 [GGG, 2-(4-Chloro-phenyl)-1,3,4,5-tetrahydro-azepino[5,4,3-cd]indol-6-one] | 1.9 | 4.1 nM | 250 to 252 °C
15 | CNCc1cccc(-c2[nH]c3cc(F)cc4c3c2CCNC4=O)c1 [HHHH, 8-Fluoro-2-(3-methylaminomethyl-phenyl)-1,3,4,5-tetrahydro-azepino[5,4,3-cd]indol-6-one] | 1.9 | 2.2 nM | 270 to 272 °C (dec.)
16 | CNCc1ccc(-c2[nH]c3cc(F)cc4c3c2CCNC4=O)cc1 [IIII, 8-Fluoro-2-(4-methylaminomethyl-phenyl)-1,3,4,5-tetrahydro-azepino[5,4,3-cd]indol-6-one] | 2.6 |  | 

Row | SMILES | Cytotoxicity Potentiation PF50 (A549 cells) | Ki (purified PARP protein) | melting point
17 | O=C1NCCc2c(-c3ccc(CN4CCCC4)cc3)[nH]c3cc(F)cc1c23 [JJJJ, 8-Fluoro-2-(4-pyrrolidin-1-ylmethyl-phenyl)-1,3,4,5-tetrahydro-azepino[5,4,3-cd]indol-6-one] | 2.4 | 4.4 nM | 
18 | O=C1NCCc2c(-c3ccc(CCN4CCCC4)cc3)[nH]c3cccc1c23 [MMM, 2-[4-(2-Pyrrolidin-1-yl-ethyl)-phenyl]-1,3,4,5-tetrahydro-azepino[5,4,3-cd]indol-6-one] | 2.3 | 9.4 nM | 228 to 229 °C (dec.)
19 | CNCc1ccc(-c2[nH]c3cccc4c3c2CCNC4=O)cc1 [OO, 2-(4-(N-Methylamino)methylphenyl)-3,4,5,6-tetrahydro-1H-azepino[5,4,3-cd]indol-6-one] | 2.4 | 4.1 nM | 
20 | O=C1NCCc2c(-c3ccc(CN4CCCC4)c(F)c3)[nH]c3cccc1c23 [QQQ, 2-(3-Fluoro-4-pyrrolidin-1-ylmethyl-phenyl)-1,3,4,5-tetrahydro-azepino[5,4,3-cd]indol-6-one] | 2.3 | 10.2 nM | 139 to 140 °C (dec.)
21 | O=C1NCCc2c(-c3cccc(CN4CCCC4)c3)[nH]c3cccc1c23 [TTTT, 2-(3-Pyrrolidin-1-ylmethylphenyl)-3,4,5,6-tetrahydro-1H-azepino[5,4,3-cd]indol-6-one] | 1.6 | 7.4 nM | 219 to 223 °C (dec.)
22 | O=C1NCCc2c(-c3cccc(Oc4ccc(F)cc4)c3)[nH]c3cccc1c23 [UU, 2-[3-(4-Fluoro-phenoxy)-phenyl]-1,3,4,5-tetrahydro-azepino[5,4,3-cd]indol-6-one] | 1.8 | 10 nM | 240 to 241 °C
23 | Nc1cccc(C#Cc2[nH]c3cccc4c3c2CCNC4=O)c1 [UUU, 2-(3-Amino-phenylethynyl)-1,3,4,5-tetrahydro-azepino[5,4,3-cd]indol-6-one] |  | 11.4 nM | 261 to 262 °C (dec.)
24 | O=C1NCCc2c(-c3ccc(CN4CCCC4)cc3)[nH]c3cccc1c23 [UUUU, 2-(4-Pyrrolidin-1-ylmethylphenyl)-3,4,5,6-tetrahydro-1H-azepino[5,4,3-cd]indol-6-one] | 2.0 |  | 
25 | O=C1NCCc2c(-c3ccc(-c4ccccc4)cc3)[nH]c3cccc1c23 [VV, 2-Biphenyl-4-yl-1,3,4,5-tetrahydro-azepino[5,4,3-cd]indol-6-one] | 2.0 | 10 nM | 277 to 279 °C (dec.)
26 | O=C1NCCc2c(-c3ccc(CN4CCOCC4)cc3)[nH]c3cccc1c23 [VVVV, 2-(4-Morpholin-4-ylmethylphenyl)-3,4,5,6-tetrahydro-1H-azepino[5,4,3-cd]indol-6-one] | 2.1 | 13.2 nM | 
27 | O=C1NCCc2c(-c3ccc(Cl)c(C(F)(F)F)c3)[nH]c3cccc1c23 [WW, 2-(4-Chloro-3-trifluoromethyl-phenyl)-1,3,4,5-tetrahydro-azepino[5,4,3-cd]indol-6-one] |  | 4.4 nM | 118.5 to 119 °C
28 | O=C(O)c1ccc(-c2[nH]c3cccc4c3c2CCNC4=O)cc1 [WWW, 4-(6-Oxo-3,4,5,6-tetrahydro-1H-azepino[5,4,3-cd]indol-2-yl)-benzoic Acid] |  | 263 nM | 345.5 to 346.5 °C (dec.)
29 | O=C1NCCc2c(-c3ccc4ccccc4c3)[nH]c3cccc1c23 [XX, 2-Naphthalen-2-yl-1,3,4,5-tetrahydro-azepino[5,4,3-cd]indol-6-one] |  | 4.6 nM | 261 to 262 °C
30 | O=C(O)c1[nH]c2cccc3c2c1CCNC3=O [XXX, 6-Oxo-3,4,5,6-tetrahydro-1H-azepino[5,4,3-cd]indole-2-carboxylic Acid] |  | 370 nM | 298 to 299 °C (dec.)
31 | C[N+](C)([O-])Cc1ccc(-c2[nH]c3cccc4c3c2CCNC4=O)cc1 [XXXX, 2-(4-(N,N-Dimethylamino)methylphenyl)-3,4,5,6-tetrahydro-1H-azepino[5,4,3-cd]indol-6-one, N-oxide] | 1.7 | 18 nM | 
32 | O=C1NCCc2c(-c3cccc(CCO)c3)[nH]c3cccc1c23 [ZZ, 2-[3-(2-Hydroxy-ethyl)-phenyl]-1,3,4,5-tetrahydro-azepino[5,4,3-cd]indol-6-one] |  | 9.7 nM | 187.5 to 188.5 °C
